Laboratory results reported in patent publication EP1363949B1, “FUNCTIONAL FRAGMENT OF THE LEPTINE RECEPTOR” (Vlaams Interuniversitair Instituut voor Biotechnologie vzw., priority 2000, dated 2007).

System: FLAG-tagged SOCS3
Assay: phosphopeptide affinity chromatography with anti-FLAG Western blot
Format: binding, rat
Conditions: lysates of HEK293T cells transfected with pMET7-fSOCS3, biotinylated peptides on streptavidin-agarose
From the text: Monoclonal anti-FLAG antibody M2 was obtained from Sigma. Mouse recombinant leptin was purchased from R&D Systems. Peptides were synthesized using standard Fmoc-amino-acid solid phase chemistry on an Applied Biosystems Model 431A peptide synthesizer. Biotin was esterified manually following similar procedures as on the synthesizer, and added to the reaction mixture. Incorporation of phosphotyrosine was realized by using a protected Fmoc-tyrosine-phosphobenzylester (Novabiochem). After purification, mass of the peptides was confirmed by mass spectrometry. Sequences of the peptides used were biotin-QRQPSVK(p)Y985ATLVSNDK and biotin-NHREKSVC(p)Y1077LGVTSVNR.
Approximately 10^6 HEK293T cells were lysed in 150 µl 2x loading buffer. After sonication, 30 µl was loaded on a 10% polyacrylamide gel. […] Blotting efficiency was checked using PonceauS staining (Sigma). […] Peptide concentrations were determined by a colorimetric assay using alkaline hydrolysis and a ninhydrine reagent. […]
The interaction sites of SOCS3 with the leptin receptor were confirmed using a biochemical approach. FLAG-tagged SOCS3 was expressed upon transient transfection of pMET7-fSOCS3 in HEK293T cells, and was analyzed for binding to (phospho)-tyrosine containing peptides matching the two motifs within the leptin receptor. […]

## biotin-QRQPSVK(p)Y985ATLVSNDK [non-phosphorylated peptide]
  binding of SOCS3: did not bind any SOCS3 protein
